≈ marks a conversion by molar mass, not a printed value.
Columns and labels:
Aqueous solubility = assay type: physicochemical; settings: McIlvaine buffer pH 6.8, 2.5% DMSO; for Aqueous solubility: 24 h; for solubility at 24 h: McIlvaine buffer with 2.5% DMSO, aqueous buffer, kinetic from dmso stock
Description: Assay for Determination of Aqueous Solubility
Starting from a 10 mM DMSO stock solution, aliquots are diluted with acetonitrile/water (1/1) and McIlvaine buffer pH 6.8, respectively. After 24 h of shaking, the solutions or suspensions are filtered and analyzed by LC-UV. The amount dissolved in buffer is compared to the amount dissolved in the acetonitrile/water (1/1) solution. Solubility is measured from 0.001 to 0.125 mg/ml at a DMSO concentration of 2.5%. If more than 90% of the compound is dissolved in buffer, the value is marked with “>”.

neutrophil elastase [1] = target: T1, neutrophil elastase (Homo sapiens (Human), UniProt P08246); assay: Human Neutrophil Elastase Assay; assay type: biochemical; settings: substrate MeOSuc-Ala-Ala-Pro-Val-AMC
Target sequence in this assay (P08246 30-247): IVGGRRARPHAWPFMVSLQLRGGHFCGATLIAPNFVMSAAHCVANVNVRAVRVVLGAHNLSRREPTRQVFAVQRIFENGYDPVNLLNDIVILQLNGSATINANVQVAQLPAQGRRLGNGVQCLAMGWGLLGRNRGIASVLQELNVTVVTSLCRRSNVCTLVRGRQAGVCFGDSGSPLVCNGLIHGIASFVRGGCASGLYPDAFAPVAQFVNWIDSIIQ

neutrophil elastase [2] = target: T1, neutrophil elastase; assay: Neutrophil elastase inhibitory activity in human plasma; assay type: biochemical; settings: zymosan-stimulated human plasma, substrate MeOSuc-Ala-Ala-Pro-Val-AMC
Description: Assay for the Determination of Neutrophil Elastase Inhibitory Activity in Human Plasma
Citrated blood from human healthy donors is mixed with zymosan suspension and incubated at room temperature. This leads to the stimulation of neutrophils and the release of neutrophil elastase into the plasma. The stimulated blood is centrifuged to generate the neutrophil elastase enriched plasma.
Preparation of Zymosan Working Solution:
• A single 45 ml blood sample is taken into a 50 ml tube containing citrate (3.13%, 5 mL) and the tube is gently inverted 4 times. • Immediately after blood sampling, zymosan working solution (5 mL) is added. • After the addition of zymosan working solution, the tubes are capped, mixed gently and incubated at 22° C. for 15 min on a shaker at 20 rpm. • Make 10 ml aliquots after the incubation time. • Centrifuge the 15 ml tubes at 800 g for 15 min at 4° C. in a Jouan centrifuge. • Harvest the plasma and make 1-5 ml aliquots. • Store the plasma at −80° C.
Various concentrations of the neutrophil elastase inhibitor are incubated with plasma. Subsequently, the enzyme activity is measured using the fluorogenic substrate MeOSuc-Ala-Ala-Pro-Val-AMC (Bachem Cat. No. I-1270, substrate concentration: 250 μM, pH 7.5, 25 mM TRIS buffer, 250 mM NaCl) in analogous fashion as described for the human neutrophil assay. A dose response curve is generated to calculate the EC50 of the inhibitor. The analysis of the data is performed by the calculation of the percentage of fluorescence in the presence of the test compound compared to the fluorescence of the vehicle control after subtracting the background fluorescence: An inhibitor of the neutrophil elastase enzyme will give values between 100% control (no inhibition) and 0% control (complete inhibition).
Target sequence in this assay (P08246 30-267): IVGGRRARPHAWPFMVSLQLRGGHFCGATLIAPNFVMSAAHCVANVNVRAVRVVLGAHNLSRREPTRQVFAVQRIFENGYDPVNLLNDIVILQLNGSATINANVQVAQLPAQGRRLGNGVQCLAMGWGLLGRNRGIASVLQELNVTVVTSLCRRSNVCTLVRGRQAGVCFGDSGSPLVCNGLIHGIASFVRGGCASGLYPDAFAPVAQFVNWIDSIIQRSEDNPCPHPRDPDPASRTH

human hepatocytes = assay: Metabolic stability with human hepatocytes; assay type: in vitro ADME; settings: 1 μM compound, well stirred model
Description: Assay for the Determination of Metabolic Stability with Human Hepatocytes
The metabolic degradation of the test compound is assayed in a human hepatocyte suspension. Human hepatocytes (typically cryopreserved) are incubated in an appropriate buffer system (e.g. Dulbecco's modified eagle medium plus 3.5 μg glucagon/500 mL, 2.5 mg insulin/500 mL and 3.75 mg/500 mL hydrocortison) containing 5% species serum. Following a (typically) 30 min preincubation in an incubator (37° C., 10% CO2), 5 μl of test compound solution (80 μM; from 2 mM stock solution in DMSO diluted 1:25 with medium) are added into 395 μl hepatocyte suspension (cell density in the range 0.25-5*10^6 cells/mL, typically 1*10^6 cells/mL; final concentration of test compound 1 μM, final DMSO concentration 0.05%). The cells are incubated for six hours (incubator, orbital shaker) and samples (25 μl) are taken at 0, 0.5, 1, 2, 4 and 6 hours. Samples are transferred into acetonitrile and pelleted by centrifugation (5 min) The supernatant is transferred to a new 96-deepwell plate, evaporated under nitrogen and resuspended. The decline of parent compound is analyzed by LC-MS/MS.
The intrinsic clearance CL_[…] is calculated as follows: CL_[…]=Dose/AUC=(Co/CD)/(AUD+clast/k)*1,000/60 (Co: initial concentration in the incubation [μM], CD: cell density of vital cells [10^6 cells/mL], AUD: area under the data [μM*h], clast: concentration of last data point [μM], k: slope of the regression line for parent decline [h^−1])
The calculated in vitro hepatic intrinsic clearance Q h can be scaled up to the intrinsic in vivo hepatic clearance and used to predict hepatic in vivo blood clearance (CL) by the use of a liver model (well stirred model): CL_[…]_INVIVO[ml/min/kg]=(CL_[…][μL/min/10^6cells]*hepatocellularity[10^6cells/g liver]*liver factor[g/kg bodyweight])/1,000 CL[ml/min/kg]=CL_[…]_INVIVO[ml/min/kg]*hepatic blood flow [ml/min/kg]/(CL_[…]_INVIVO[ml/min/kg]+hepatic blood flow[ml/min/kg]) Qh[%]=CL[ml/min/kg]/hepatic blood flow[ml/min/kg]) (Hepatocellularity, human: 120*10^6 cells/g liver; liver factor, human: 25.7 g/kg bodyweight; blood flow, human: 21 ml/(min*kg)) Based on this assay.
The calculated in vitro hepatic intrinsic clearance values of selected compounds in the metabolic stability assay with human hepatocytes described above are listed in Table 4.

## CC(=O)C1=C(C)N(c2cccc(C(F)(F)F)c2)C(=O)N(C)C1c1ccc(C#N)cc1C(=O)NCC#N (centres unmarked) [Example 1.6]
Aqueous solubility
  Aqueous solubility: 0.070 mg/mL
Neutrophil elastase [1]
  IC50: < 1 nM
Neutrophil elastase [2]
  EC50: 1 nM
Human hepatocytes
  Qh: 25%

## CC(=O)C1=C(C)N(c2cccc(C(F)(F)F)c2)C(=O)N(C)C1c1ccc(C#N)cc1C(=O)NC1CC1 (centres unmarked) [Example 1.8]
Aqueous solubility
  Aqueous solubility: 0.076 mg/mL
Neutrophil elastase [1]
  IC50: < 1 nM
Neutrophil elastase [2]
  EC50: 1 nM
Human hepatocytes
  Qh: 22%

## CC(=O)C1=C(C)N(c2cccc(C(F)(F)F)c2)C(=O)N(C)C1c1ccc(C#N)cc1C(=O)NCCF (centres unmarked) [Example 1.10]
Aqueous solubility
  Aqueous solubility: 0.066 mg/mL
Neutrophil elastase [1]
  IC50: < 1 nM
Neutrophil elastase [2]
  EC50: 1 nM
Human hepatocytes
  Qh: 27%

## CC(=O)C1=C(C)N(c2cccc(C(F)(F)F)c2)C(=O)N(C)C1c1ccc(C#N)cc1C(=O)NCC(C)(C)O (centres unmarked) [Example 1.22]
Aqueous solubility
  solubility at 24 h: 65 µg/mL (≈ 123 µM)
Neutrophil elastase [1]
  IC50: 1.4 nM
Neutrophil elastase [2]
  EC50: 2 nM
Human hepatocytes
  Qh: 15%

## CC(=O)C1=C(C)N(c2cccc(C(F)(F)F)c2)C(=O)N(C)C1c1ccc(C#N)cc1C(=O)N1CCn2ncnc2C1 (centres unmarked) [Example 1.73]
Aqueous solubility
  solubility at 24 h: 73 µg/mL (≈ 130 µM)
Neutrophil elastase [1]
  IC50: < 1 nM
Neutrophil elastase [2]
  EC50: 2 nM
Human hepatocytes
  Qh: 19%

## CNC(=O)c1cc(C#N)ccc1[C@@H]1C(C(C)=O)=C(C)N(c2cccc(C(F)(F)F)c2)C(=O)N1C [Example 13.1]
Aqueous solubility
  Aqueous solubility: 0.051 mg/mL
Neutrophil elastase [1]
  IC50: < 1 nM
Neutrophil elastase [2]
  EC50: 1 nM
Human hepatocytes
  Qh: 16%

## CC(=O)C1=C(C)N(c2cccc(C(F)(F)F)c2)C(=O)N(C)[C@@H]1c1ccc(C#N)cc1-c1ccc(=O)n(C)c1 [Example 16, 4-[(R)-5-Acetyl-3,6-dimethyl-2-oxo-1-(3-trifluoromethyl-phenyl)-1,2,3,4-tetrahydro-pyrimidin-4-yl]-3-(1-methyl-6-oxo-1,6-dihydro-pyridin-3-yl)-benzonitrile]
Aqueous solubility
  solubility at 24 h: 73 µg/mL (≈ 140 µM)
Neutrophil elastase [1]
  IC50: < 1 nM
Neutrophil elastase [2]
  EC50: 1 nM
Human hepatocytes
  Qh: 5%

## CC(=O)C1=C(C)N(c2cccc(C(F)(F)F)c2)C(=O)N(C)[C@@H]1c1ccc(C#N)cc1-c1ccn(C)c(=O)c1 [Example 17, 4-[(R)-5-Acetyl-3,6-dimethyl-2-oxo-1-(3-trifluoromethyl-phenyl)-1,2,3,4-tetrahydro-pyrimidin-4-yl]-3-(1-methyl-2-oxo-1,2-dihydro-pyridin-4-yl)-benzonitrile]
Aqueous solubility
  solubility at 24 h: 62 µg/mL (≈ 119 µM)
Neutrophil elastase [1]
  IC50: < 1 nM
Neutrophil elastase [2]
  EC50: 5 nM
Human hepatocytes
  Qh: 6%

Source: US9290457B2, “Substituted dihydropyrimidinones and their use as inhibitors of neutrophil elastase activity” (Boehringer Ingelheim International GmbH, priority 2014, dated 2016)
